In the CheMixHub viscosity set:

Assay: xn = mol fraction of the nth substance listed

CO + CCO
Conditions | viscosity [mPa·s]
293.15 K, 101 kPa, x1 = 0.25 | 1.134
293.15 K, 101 kPa, x1 = 0.5 | 0.809
293.15 K, 101 kPa, x1 = 0.75 | 0.69
293.15 K, 101.3 kPa, x1 = 0.114 | 1.1
293.15 K, 101.3 kPa, x1 = 0.263 | 0.997
293.15 K, 101.3 kPa, x1 = 0.501 | 0.849
293.15 K, 101.3 kPa, x1 = 0.738 | 0.712
293.15 K, 101.3 kPa, x1 = 0.856 | 0.651
298.15 K, 101 kPa, x1 = 0.2045 | 0.94
298.15 K, 101 kPa, x1 = 0.25 | 1.032
298.15 K, 101 kPa, x1 = 0.3971 | 0.832
298.15 K, 101 kPa, x1 = 0.5 | 0.747
298.15 K, 101 kPa, x1 = 0.5962 | 0.729
298.15 K, 101 kPa, x1 = 0.75 | 0.639
298.15 K, 101 kPa, x1 = 0.7975 | 0.634
298.15 K, 101.33 kPa, x1 = 0.0889 | 1.045
298.15 K, 101.33 kPa, x1 = 0.146 | 1.008
298.15 K, 101.33 kPa, x1 = 0.2385 | 0.95
298.15 K, 101.33 kPa, x1 = 0.3311 | 0.896
298.15 K, 101.33 kPa, x1 = 0.4041 | 0.855
298.15 K, 101.33 kPa, x1 = 0.5234 | 0.791
298.15 K, 101.33 kPa, x1 = 0.6076 | 0.747
298.15 K, 101.33 kPa, x1 = 0.7136 | 0.694
298.15 K, 101.33 kPa, x1 = 0.8128 | 0.643
298.15 K, 101.33 kPa, x1 = 0.9156 | 0.594
303.15 K, 101 kPa, x1 = 0.25 | 0.939
303.15 K, 101 kPa, x1 = 0.5 | 0.69
303.15 K, 101 kPa, x1 = 0.75 | 0.594
308.15 K, 101 kPa, x1 = 0.2045 | 0.791
308.15 K, 101 kPa, x1 = 0.25 | 0.858
308.15 K, 101 kPa, x1 = 0.3971 | 0.706
308.15 K, 101 kPa, x1 = 0.5 | 0.638
308.15 K, 101 kPa, x1 = 0.5962 | 0.625
308.15 K, 101 kPa, x1 = 0.75 | 0.552
308.15 K, 101 kPa, x1 = 0.7975 | 0.548
313.15 K, 101 kPa, x1 = 0.25 | 0.784
313.15 K, 101 kPa, x1 = 0.5 | 0.593
313.15 K, 101 kPa, x1 = 0.75 | 0.515
313.15 K, 101.3 kPa, x1 = 0.114 | 0.77
313.15 K, 101.3 kPa, x1 = 0.263 | 0.709
313.15 K, 101.3 kPa, x1 = 0.501 | 0.615
313.15 K, 101.3 kPa, x1 = 0.738 | 0.531
313.15 K, 101.3 kPa, x1 = 0.856 | 0.491
318.15 K, 101 kPa, x1 = 0.2045 | 0.667
318.15 K, 101 kPa, x1 = 0.25 | 0.718
318.15 K, 101 kPa, x1 = 0.3971 | 0.599
318.15 K, 101 kPa, x1 = 0.5 | 0.551
318.15 K, 101 kPa, x1 = 0.5962 | 0.531
318.15 K, 101 kPa, x1 = 0.75 | 0.482
318.15 K, 101 kPa, x1 = 0.7975 | 0.474
323.15 K, 101 kPa, x1 = 0.25 | 0.661
323.15 K, 101 kPa, x1 = 0.5 | 0.513
323.15 K, 101 kPa, x1 = 0.75 | 0.452

Oc1ccccc1 + C1CCCCC1
viscosity [mPa·s], 303.15 K
Conditions | x2 = 0.0815 | x2 = 0.2049 | x2 = 0.2824 | x2 = 0.4033 | x2 = 0.501 | x2 = 0.5012 | x2 = 0.5905 | x2 = 0.7019 | x2 = 0.7969 | x2 = 0.8953
101 kPa | 5.517 | 3.87 | 3.177 | 2.326 | 1.864 | – | 1.552 | 1.255 | 1.066 | 0.898
101.33 kPa | 5.517 | 3.87 | 3.177 | 2.326 | – | 1.864 | 1.552 | 1.255 | 1.066 | 0.898

ClC(Cl)C(Cl)Cl + CCCCCCCC
303.15 K, 101 kPa
Conditions | viscosity [mPa·s]
x1 = 0.1642 | 0.536
x1 = 0.2409 | 0.562
x1 = 0.3162 | 0.61
x1 = 0.3944 | 0.655
x1 = 0.4996 | 0.725
x1 = 0.5896 | 0.794
x1 = 0.6696 | 0.864
x1 = 0.7658 | 0.976
x1 = 0.8847 | 1.167
x1 = 0.9045 | 1.208

COCCOCCOC + CC1COC(=O)O1
viscosity [mPa·s], 101.33 kPa
Conditions | 298.15 K | 308.15 K | 318.15 K
x1 = 0.021 | 2.427 | 2 | 1.666
x1 = 0.0421 | 2.372 | 1.94 | 1.641
x1 = 0.0759 | 2.295 | 1.87 | 1.565
x1 = 0.0976 | 2.245 | 1.835 | 1.529
x1 = 0.1779 | 2.081 | 1.693 | 1.42
x1 = 0.2468 | 1.953 | 1.595 | 1.332
x1 = 0.3441 | 1.782 | 1.458 | 1.216
x1 = 0.3815 | 1.719 | 1.412 | 1.176
x1 = 0.4148 | 1.669 | 1.362 | 1.145
x1 = 0.4853 | 1.573 | 1.291 | 1.083
x1 = 0.5455 | 1.488 | 1.226 | 1.038
x1 = 0.6708 | 1.324 | 1.101 | 0.938
x1 = 0.7643 | 1.223 | 1.017 | 0.877
x1 = 0.8341 | 1.148 | 0.959 | 0.829
x1 = 0.8725 | 1.107 | 0.928 | 0.804
x1 = 0.9275 | 1.06 | 0.889 | 0.774
x1 = 0.9513 | 1.035 | 0.874 | 0.758
x1 = 0.9796 | 1.005 | 0.852 | 0.739

CCCCCCN + c1ccccc1
303.15 K, 101 kPa
Conditions | viscosity [mPa·s]
x2 = 0.105 | 0.6977
x2 = 0.2983 | 0.645
x2 = 0.4918 | 0.6006
x2 = 0.5946 | 0.5814
x2 = 0.6955 | 0.5639
x2 = 0.7954 | 0.5506
x2 = 0.8997 | 0.549

CO/N=C(\C(=O)N[C@@H]1C(=O)N2C(C(=O)[O-])=C(CSc3nc(=O)c(=O)[n-]n3C)CS[C@H]12)c1csc(N)n1.[Na+].[Na+] + O
viscosity [mPa·s], 100 kPa
Conditions | 293.15 K | 298.15 K | 303.15 K | 308.15 K | 313.15 K
x1 = 9e-05 | 1.012 | 0.8968 | 0.8033 | 0.7267 | 0.6584
x1 = 0.00018 | 1.016 | 0.9026 | 0.807 | 0.7308 | 0.6615
x1 = 0.000349 | 1.053 | 0.935 | 0.829 | 0.744 | –
x1 = 0.000873 | 1.12 | 0.994 | 0.885 | 0.794 | –
x1 = 0.0009 | 1.03 | 0.9163 | 0.8185 | 0.7413 | 0.6726
x1 = 0.00139 | 1.2 | 1.062 | 0.945 | 0.849 | –
x1 = 0.002501 | 1.399 | 1.231 | 1.1 | 0.982 | –
x1 = 0.003119 | 1.527 | 1.348 | 1.195 | 1.07 | –
x1 = 0.003887 | 1.701 | 1.495 | 1.323 | 1.184 | –
x1 = 0.004766 | 1.918 | 1.674 | 1.48 | 1.322 | –
x1 = 0.005482 | 2.122 | 1.858 | 1.638 | 1.455 | –

COCCOCCOC + CCCCCCCCCCCC
viscosity [mPa·s], 101.33 kPa
Conditions | x1 = 0.1009 | x1 = 0.1998 | x1 = 0.2993 | x1 = 0.4034 | x1 = 0.5021 | x1 = 0.6015 | x1 = 0.7024 | x1 = 0.8008 | x1 = 0.9003
298.15 K | 1.236 | 1.157 | 1.11 | 1.074 | 1.043 | 1.02 | 1.001 | 0.981 | 0.98
308.15 K | 1.038 | 0.976 | 0.94 | 0.909 | 0.884 | 0.865 | 0.849 | 0.837 | 0.835
318.15 K | 0.88 | 0.83 | 0.801 | 0.78 | 0.757 | 0.743 | 0.728 | 0.72 | 0.719
